One data set concerns cynomolgus monkeys. Description: Monkey spontaneous eye blink rate (EBR). Type of data set: in vivo, Macaca fasicularis. The settings on record: cynomolgus monkey; for EBR response on repeated daily dosing (3 days): n = 3, A-77636 s.c., PF-2334 oral 0.6 + 0.3 mg/kg. Here is the method: Increase in spontaneous EBR has been previously shown with D1 agonists and partial agonists. To confirm the specificity of the response in our particular assay set up for D1 activation, we verified that the D1 receptor antagonist SCH-39166 fully blocks the increased eye blink response of non-catechol full D1 agonist that is a close structural analog of the compounds in this paper (data not shown). All procedures involving animals were conducted with approval of the Pfizer Institutional Animal Care and Use Committee (Groton, CT) and compliant with the regulations and standards of the Animal Welfare Act (9CFR2, 9CFR3). Three male Cynomolgus macaques (Macaca fasicularis) of Mauritian origin, 7–10 years old, SPF for CHV-1, SIV, STLV1 and SRV 1, 2, 5 were used. Animals were exposed to 12 h light/dark cycle (lights on 6:00 AM – 6:00 PM). […] EBRS were recorded from chaired animals for 2 min at 10 min intervals by a trained observer through direct visual observation who was blinded to experimental conditions. Animals were chaired at approximately 7:30 AM. After vehicle or compound administration, eye blinks were recorded during the following intervals: from 10 to 50 min (0–1 h), 130 to 170 min (2–3 h), 310 to 350 min (5–6 h). Animals were returned to their home cages between two consecutive sessions and after the final recording of the day. Blood samples (1 ml) were collected from the femoral vein at 1 and 5 h after the first dose to quantitate plasma compound levels. […] A77636 was dissolved in 0.9% sterile saline, formulated fresh prior to administration, and given once per day for 3 days. […] Vehicle control was administered on day 0.
EBR data were first converted to blinks per minute. EBR were averaged by binning into 3 periods: Period 1 (0–1 h after the first dose) EBR = mean of 10, 20, 30, 40, and 50 min recordings; Period 2 (2–3 h after the first dose) EBR = mean of 130, 140, 150, 160, and 170 min recordings; Period 3 (5–6 h after the first dose) EBR = mean of 310, 320, 330, 340, and 350 min recordings. For Fig. 5c EBR data were averaged by binning data from periods 1 through 3 as daily EBR. Data from each animal was then normalized to their respective Day 1 EBR and expressed as percent of Day 1 EBR for each drug. EBR data were analyzed with SAS® 9.4 (SAS Institute Inc. Cary, NC) using a mixed linear model (Mixed Procedure) for repeated measures. The model included treatment, day, time period, and their interactions as fixed effects, and animal and animal-by-day interaction as random effects. A first order autoregressive model was used for longitudinal covariance structure. Differences between least squares means across days, overall and for each time period, were tested and adjusted for multiple comparisons via Tukey method. […]

The test system of data set [1] is rats with unilateral 6-OHDA lesions. Nature of the data set: Rat unilateral 6-OHDA lesion model, contralateral rotations. Particulars: for contralateral rotational behavior on repeated dosing: 6-OHDA lesioned rats, six doses every 12 h, A-77636 0.32 mg/kg s.c., PF-2334 10.78 mg/kg oral; for pairwise contrast of rotational speed, estimate: 6-OHDA rats. Type of data set: in vivo, Sprague-Dawley rat. Here is the method: Sprague-Dawley rats with 6-OHDA lesions were obtained from Taconic (Rensselaer, NY). For the lesion surgery rats (~175 g) were anesthetized with isoflurane and given desipramine to protect noradrenergic neurons (10 mg/kg). The medial forebrain was targeted using AP:−4.3 mm; ML:−1.2 mm; DV:8.3 mm using a 30 G cannula. […] The cannula was left in place post-infusion for 5 min. To assess the extent of the lesion animals were given an apomorphine (0.05 mg/kg S.C.) challenge 21 day after the lesion surgery. Matched sham lesioned animals from the same source received exactly the same procedures except saline was infused into the brain. Only animals with more than 180 contralateral rotations over 30 min or more than 30 rotations in multiple 5 min intervals were used for the study. Experiments began 12 weeks after lesion.
Rats with sham (n = 20) and unilateral 6-OHDA lesions (n = 17) were obtained and four weeks after lesion used for the study. […] Animals followed a normal light cycle (6:00 AM lights on and 6:00 PM lights off). Animals were provided with food and water ad libitum in the chambers. Activity was monitored with infrared ceiling cameras (Y-cam, London, UK) and rotational behavior was quantified by automated movie analysis via validated custom software. Animals were acclimated and recorded for 2 h to the test chambers prior to the first dose.
Rotational behavior was detected using custom software written in Python language, version 2.7. OpenCV library, version 2.10 was used for video analyses[73],[74]. R software, version 3.1.0, was used for statistical analyses. Rotational behavior is described as the average number of rotations per minute (RPM) during the 6 h period immediately following each dose. To quantify changes within each treatment group as well as differences between treatments over time we used a longitudinal mixed model two-way ANOVA[75] with time, treatment, and their interaction as fixed factors and animal as a random factor. Least-squares means for specified factors were estimated using lsmeans library. Post-hoc comparisons to reference time point were adjusted for multiple hypothesis testing via Dunnett′s method. All statistical tests were performed two-tailed at a 5% level of significance.

Data set [2] can be described thus: Plasma concentrations in monkey EBR study. Type of data set: in vivo, cynomolgus monkey. Particulars: mean ± SD. On the procedure: For both compounds, blood collections occurred on day 1, day 2, and day 3. All blood samples were placed on wet ice until centrifugation. Following centrifugation, the plasma was transferred to polypropylene tubes and stored frozen at –20 °C to –80 °C until analysis.

The next data set concerns human D1R V270A mutant. Description: cAMP assay, D1R mutant V270A. The settings on record: relative to wild-type D1R; each table line is one experiment (Experiment # 1-6).
The subject of a further data set is human D1R T59A mutant. Description: cAMP assay, D1R mutant T59A. The settings on record: relative to wild-type D1R; each table line is one experiment (Experiment # 1-6).
Another data set deals with human D1R S199A mutant. Nature of the data set: cAMP assay, D1R mutant S199A. The settings on record: relative to wild-type D1R; each table line is one experiment (Experiment # 1-6).
For the next data set, the system named is human D1R F288A mutant. Nature of the data set: cAMP assay, D1R mutant F288A. Particulars: relative to wild-type D1R; each table line is one experiment (Experiment # 1-6).
In the next data set the test system is human D1R W318A mutant. Description: cAMP assay, D1R mutant W318A. The settings on record: relative to wild-type D1R; each table line is one experiment (Experiment # 1-6).
The next data set has as its system human D1R S188I mutant. Description: cAMP assay, D1R mutant S188I. Particulars: relative to wild-type D1R; each table line is one experiment (Experiment # 1-6).
Where [3] appears, read: 1 mg/kg/day subcutaneous dose, Day 1, 1 h post-dose.
Setting [4] is: 1 mg/kg/day subcutaneous dose, Day 1, 6 h post-dose.
Setting [5] is: 1 mg/kg/day subcutaneous dose, Day 2, 1 h post-dose.
The mark [6] stands for this setting: 1 mg/kg/day subcutaneous dose, Day 2, 6 h post-dose.
[7] abbreviates: 1 mg/kg/day subcutaneous dose, Day 3, 1 h post-dose.
Where [8] appears, read: 1 mg/kg/day subcutaneous dose, Day 3, 6 h post-dose.
[9] abbreviates: 0.9 mg/kg/day split oral dose, Day 1, 5 h post-dose.
Setting [10] is: 0.9 mg/kg/day split oral dose, Day 2, 1 h post-dose.
Where [11] appears, read: 0.9 mg/kg/day split oral dose, Day 2, 5 h post-dose.
[12] abbreviates: 0.9 mg/kg/day split oral dose, Day 3, 1 h post-dose.
[13] abbreviates: 0.9 mg/kg/day split oral dose, Day 3, 5 h post-dose.

Values joined by “and” are separate entries in the source; they are usually repeats but may differ in a detail not shown here. Equal entries are not always repeated. “Also recorded” adds a separate entry of the source.

Consider `NC[C@@H]1O[C@H](C23CC4CC(CC(C4)C2)C3)Cc2c1ccc(O)c2O` [A-77636, reference compound], for which the “EBR response on repeated daily dosing (3 days)” value in the data set with cynomolgus monkeys is “progressively and significantly attenuated with each dosing day”. In the data set on cynomolgus monkeys (A-77636 s.c. (0.1 mg/kg as printed elsewhere in the source), PF-2334 oral 0.6 mg/kg + 0.3 mg/kg 8 h later), the “increase of spontaneous EBR over baseline after single dose” value is listed as 2–3 fold. Also, the “contralateral rotational behavior on repeated dosing” value in data set [1] was “essentially zero contralateral rotational behavior”. The “Cp (total plasma concentration)” value worked out at 79.3 ± 11.4 ng/mL in [2] (setting [3]); 34.8 ± 3.5 ng/mL in [2] (setting [4]); 73.1 ± 13.8 ng/mL in data set [2] (setting [5]); 46.3 ± 11.7 ng/mL in data set [2] (setting [6]); 85.5 ± 19.0 ng/mL in data set [2] (setting [7]); 40.6 ± 2.8 ng/mL in data set [2] (setting [8]). Further, the “Cp,u (unbound plasma concentration)” value in data set [2] (setting [3]) is reported as 10.6 ± 1.5 nM; in data set [2] (setting [4]) it was 4.6 ± 0.5 nM; in [2] (setting [5]) it was 9.8 ± 1.8 nM; in [2] (setting [6]) it was 6.2 ± 1.6 nM; in [2] (setting [7]) it was 11.4 ± 2.5 nM; in data set [2] (setting [8]), 5.4 ± 0.4 nM.
Consider `Cc1cc(Oc2cccc(O)c2O)ccc1-c1c(C)ncnc1C` [PF-1437], for which, in the data set on human D1R V270A mutant, the “fold shift of cAMP functional potency, V270A (EC50 mutant/ EC50 WT)” value came out at 0.6. Also, the “fold shift of cAMP functional potency, T59A (EC50 mutant/ EC50 WT)” value in the data set on human D1R T59A mutant is 0.2.
Take `Cc1n[nH]c(=O)c(C)c1-c1ccc(Oc2nccc3occc23)cc1F` [PF-2334]: in the data set with cynomolgus monkeys, the “EBR response on repeated daily dosing (3 days)” value was “sustained after multiple days of dosing”. In addition, the “contralateral rotational behavior on repeated dosing” value in data set [1] is listed as “significantly greater rotational behavior than A-77636 treated animals; also recorded: still displaying contralateral rotational behavior following the 6th dose”. Also, the “pairwise contrast of rotational speed, estimate” value is 0.4016 in data set [1] (PF-2334 10.78 mg/kg p.o. every 12 h, contrast (time range, hours) 24 - 36, least-squares means); 0.3322 in data set [1] (PF-2334, contrast (hours) 24 - 48); 0.371 in [1] (PF-2334, contrast (hours) 24 - 60); 1.093 in data set [1] (PF-2334, contrast (hours) 24 - 72 (72 h = quinpirole dose)); -0.06943 in data set [1] (PF-2334, contrast (hours) 36 - 48); -0.03066 in data set [1] (PF-2334, contrast (hours) 36 - 60). The “pairwise contrast of rotational speed, estimate” value is reported as 0.6914 in data set [1] (PF-2334, contrast (hours) 36 - 72 (72 h = quinpirole dose)); 0.03877 in data set [1] (PF-2334, contrast (hours) 48 - 60); 0.7609 in [1] (PF-2334, contrast (hours) 48 - 72 (72 h = quinpirole dose)); 0.7221 in data set [1] (PF-2334, contrast (hours) 60 - 72 (72 h = quinpirole dose)). The “Cp (total plasma concentration)” value in data set [2] (0.9 mg/kg/day split oral dose (0.6 + 0.3 mg/kg 8 h later), Day 1, 1 h post-dose) stood at 41.9 ± 9.4 ng/mL; in [2] (setting [9]), 47.0 ± 13.9 ng/mL; in [2] (setting [10]), 71.4 ± 20.1 ng/mL; in data set [2] (setting [11]) it was 99.0 ± 36.3 ng/mL; in [2] (setting [12]), 89.5 ± 49.4 ng/mL; in [2] (setting [13]), 106 ± 40 ng/mL. Besides, the “Cp,u (unbound plasma concentration)” value was determined as 4.8 ± 1.1 nM in data set [2] (0.9 mg/kg/day split oral dose, Day 1, 1 h post-dose); 5.4 ± 1.6 nM in data set [2] (setting [9]); 8.1 ± 2.3 nM in data set [2] (setting [10]); 11.3 ± 4.1 nM in data set [2] (setting [11]); 10.2 ± 5.6 nM in data set [2] (setting [12]); 12.1 ± 4.5 nM in data set [2] (setting [13]).
`Cc1cc(Oc2nccc3occc23)ccc1-c1c(C)ncc2nccn12` [PF-6142]: the “fold shift of cAMP functional potency, V270A (EC50 mutant/ EC50 WT)” value with human D1R V270A mutant was determined as 1.7. In the data set with human D1R S199A mutant, the “fold shift of cAMP functional potency, S199A (EC50 mutant/ EC50 WT)” value was 8.7 and 10.0. The “fold shift of cAMP functional potency, T59A (EC50 mutant/ EC50 WT)” value in the data set with human D1R T59A mutant was 1.0. Besides, the “fold shift of cAMP functional potency, F288A (EC50 mutant/ EC50 WT)” value in the data set with human D1R F288A mutant is 141.2 and 88.7. In addition, the “fold shift of cAMP functional potency, W318A (EC50 mutant/ EC50 WT)” value in the data set with human D1R W318A mutant is 16.3 and 20.4. The “fold shift of cAMP functional potency, S188I (EC50 mutant/ EC50 WT)” value in the data set on human D1R S188I mutant is 10.6 and 8.5 and 10.1 and 6.7.
As to `Cc1cc(Oc2nccc3occc23)ccc1-c1c(C)ncnc1C` [PF-8871], the “fold shift of cAMP functional potency, S199A (EC50 mutant/ EC50 WT)” value with human D1R S199A mutant came to 4.3. In addition, the “fold shift of cAMP functional potency, F288A (EC50 mutant/ EC50 WT)” value in the data set on human D1R F288A mutant turned out to be 146.3. Further, the “fold shift of cAMP functional potency, W318A (EC50 mutant/ EC50 WT)” value in the data set with human D1R W318A mutant was 12.5. The “fold shift of cAMP functional potency, S188I (EC50 mutant/ EC50 WT)” value with human D1R S188I mutant is 5.8 and 10.8 and 8.7.

These data come from PMC5813016 (Nature Communications, 2018).
